Laboratory results reported in patent US20110039762A1, “TARGETED ANTIMICROBIAL MOIETIES” (C3 JIAN, INC., priority 2009, published 2011).
Entries after “also recorded” stand apart in the source; their conditions may differ.

Assays:
S. pneumoniae = assay: Kill or inhibit growth/proliferation; morphology, biofilm and growth disruption (Tables 5, 6); type: cell-based, Streptococcus pneumoniae; set-up: key: A: Peptide aggregates; B: Less hyphal formation; Clumps; Diffuse clumps and small polyps; F: Diffuse growth; H: Thin; I: Growth inhibition; Microcolony formation; Rippled; Small polyps; Thick; W: Halo formation on top, microlonies on bottom; also: test concentration or dose not given here
[1] = test system: microorganisms (e.g., bacteria, yeasts, fungi); assay: Targeting peptide binding to target microorganisms (Table 3); conditions: preferably 1x PBS; for Target(s) (microorganisms bound by the targeting peptide): peptide binding in aqueous buffers varied by peptide solubility
microorganisms = assay: Peptides having multiple activities (targeting/binding, antimicrobial, growth or phenotype altering); set-up: key: B: targeting/binding activity;; M: antimicrobial activity;; G: Growth or phenotype altering
From the text: In certain embodiments, peptides described herein can have multiple activities. Thus for example, a peptide can have both binding/targeting activity and antimicrobial activity. Such peptides can be used, e.g., in a chimeric construct, for any or all of these properties. Thus, for example, a peptide designated “B” in Table 8 can be used as a targeting peptide. If it is also designated G or M it can also be used for antimicrobial activity.

[2] = microorganism the targeting peptide binds, binding in aqueous buffers varied by peptide solubility

| Substance | Organism, effect (morphology, biofilm and growth disruption) (S. pneumoniae) | Target(s) (microorganisms bound by the targeting peptide) [1] | other results |
| --- | --- | --- | --- |
| PF-220 (VDPADDGTRHIRPEDGDPIEIDE; Peptide with targeting and/or antimicrobial activity) | – | – | Organism, effect (S. pneumoniae): S. pneumoniae (H) |
| PF-449 (MPTTKSKQKGWTNTKKASNTQ; Peptide with targeting and/or antimicrobial activity) | – | – | Organism, effect (S. pneumoniae): S. pneumoniae (H) |
| PF-704 (chain 1 APAARAAL; chain 2 APAARAAL; Peptide with targeting and/or antimicrobial activity) | S. pneumoniae (C) | Mycobacteria spp | – |
| PF-465: peptide having multiple activities (chain 1 KPVGKALEEIADGKIEPVVPKEYLG; chain 2 KPVGKALEEIADGKIEPVVPKEYLG; Peptide with targeting and/or antimicrobial activity) | – | – | Activities (microorganisms): G B; Organism, effect (S. pneumoniae): S. pneumoniae (H) |
| PF-419 (VVTGKVGSLPQIK; Peptide with targeting and/or antimicrobial activity) | – | – | Organism, effect (S. pneumoniae): S. pneumoniae (H) |
| PF-455 (MARNDDDIKKIKGTLGQSPEVYGERKLPYT; Peptide with targeting and/or antimicrobial activity) | – | – | Organism, effect (S. pneumoniae): S. pneumoniae (A) |
| PF-644 (chain 1 TSGLIIGENGLNGL; chain 2 TSGLIIGENGLNGL; Peptide with targeting and/or antimicrobial activity) | – | Mycobacteria spp | Organism, effect (S. pneumoniae): S. pneumoniae (H) |
| PF-691 (chain 1 HRTVEFGVLGTYLVSGGSL; chain 2 HRTVEFGVLGTYLVSGGSL; Peptide with targeting and/or antimicrobial activity) | S. pneumoniae (R) | Mycobacteria spp | – |
| PF-660 (chain 1 TDPQATAAPRRRTSPR; chain 2 TDPQATAAPRRRTSPR; Peptide with targeting and/or antimicrobial activity) | S. pneumoniae (H) | Mycobacteria spp | – |
| PF-688 (chain 1 ARNHAVIPAG; chain 2 ARNHAVIPAG; Peptide with targeting and/or antimicrobial activity) | S. pneumoniae (A) | Mycobacteria spp | – |
| PF-415 (MIDVTIGQKSKTGAFNASYSICFSGENFSF; Peptide with targeting and/or antimicrobial activity) | – | – | Organism, effect (S. pneumoniae): S. pneumoniae (D) |
| PF-665 (chain 1 VLRVATAVGEVPTGL; chain 2 VLRVATAVGEVPTGL; Peptide with targeting and/or antimicrobial activity) | S. pneumoniae (H) | Mycobacteria spp | – |
| PF-653 (chain 1 QSVHPLPAETPVADVI; chain 2 QSVHPLPAETPVADVI; Peptide with targeting and/or antimicrobial activity) | S. pneumoniae (H) | Mycobacteria spp | – |
| PF-663 (chain 1 ATLIPRKA; chain 2 ATLIPRKA; Peptide with targeting and/or antimicrobial activity) | S. pneumoniae (A) | Mycobacteria spp | – |
| PF-700 (chain 1 LNWPFTGR; chain 2 LNWPFTGR; Peptide with targeting and/or antimicrobial activity) | S. pneumoniae (C) | Mycobacteria spp | – |
| PF-699 (chain 1 GRAGVKCRRPTGR; chain 2 GRAGVKCRRPTGR; Peptide with targeting and/or antimicrobial activity) | S. pneumoniae (A) | Mycobacteria spp | – |
| PF-662 (chain 1 GKQSRAHGPVASRREFRRKSG; chain 2 GKQSRAHGPVASRREFRRKSG; Peptide with targeting and/or antimicrobial activity) | S. pneumoniae (A) | Mycobacteria spp | – |
| PF-485 (KNSMSRSIALID; Peptide with targeting and/or antimicrobial activity) | – | – | Organism, effect (S. pneumoniae): S. pneumoniae (A) |
| PF-652 (chain 1 FLAPARPDLQAQRQALAQ; chain 2 FLAPARPDLQAQRQALAQ; Peptide with targeting and/or antimicrobial activity) | S. pneumoniae (A) | Mycobacteria spp | – |
| PF-516: peptide having multiple activities (ASKQASKQASKQASKQ; Peptide with targeting and/or antimicrobial activity) | – | – | Activities (microorganisms): G; Organism, effect (S. pneumoniae): S. pneumoniae (H) |

| Substance | Organism, effect (morphology, biofilm and growth disruption) (S. pneumoniae) | Target(s) (microorganisms bound by the targeting peptide) [1] | other results |
| --- | --- | --- | --- |
| PF-682 (chain 1 RRGKSEQGLSRR; chain 2 RRGKSEQGLSRR; Peptide with targeting and/or antimicrobial activity) | S. pneumoniae (A) | Mycobacteria spp | – |
| PF-693 (chain 1 PDPAR; chain 2 PDPAR; Peptide with targeting and/or antimicrobial activity) | S. pneumoniae (A) | Mycobacteria spp | – |
| PF-666 (chain 1 PNRRSRPR; chain 2 PNRRSRPR; Peptide with targeting and/or antimicrobial activity) | S. pneumoniae (A) | Mycobacteria spp | – |
| PF-696 (chain 1 IRSGISAAYARPLR; chain 2 IRSGISAAYARPLR; Peptide with targeting and/or antimicrobial activity) | S. pneumoniae (H) | Mycobacteria spp | – |
| PF-537: peptide having multiple activities (chain 1 LANDYYKKTKKSW; chain 2 LANDYYKKTKKSW; Peptide with targeting and/or antimicrobial activity) | – | – | Activities (microorganisms): G B; Organism, effect (S. pneumoniae): S. pneumoniae (C) |
| PF-702 (chain 1 LSGRLAGRR; chain 2 LSGRLAGRR; Peptide with targeting and/or antimicrobial activity) | S. pneumoniae (H) | Mycobacteria spp | – |
| PF-468 (EDNKDKKDKKDK; Peptide with targeting and/or antimicrobial activity) | – | – | Organism, effect (S. pneumoniae): S. pneumoniae (H) |
| PF-651 (chain 1 PRWPTGAGRHR; chain 2 PRWPTGAGRHR; Peptide with targeting and/or antimicrobial activity) | S. pneumoniae (H) | Mycobacteria spp | – |
| PF-687 (chain 1 AKRVLSLAVAPHRRQPVQGT; chain 2 AKRVLSLAVAPHRRQPVQGT; Peptide with targeting and/or antimicrobial activity) | S. pneumoniae (A) | Mycobacteria spp | – |
| PF-039 (MLEEKNKSL; Peptide with targeting and/or antimicrobial activity) | – | – | Target(s) [1, 2]: P. mirabilis; also recorded: C. jeikeium |
| PF-735 (YDPLFPNDKN; Peptide with targeting and/or antimicrobial activity) | – | S. mutans; also recorded: E. coli | – |
| 1T-195 (AASGFTYCASNGVWHPY; Peptide with targeting and/or antimicrobial activity) [Peptide 1T-195] | – | – | Target(s) [1, 2]: S. mutans |
| 1T-274 (ETTTEINAIKLHRIKQRSPQGTRRVN; Peptide with targeting and/or antimicrobial activity) [Peptide 1T-274] | – | – | Target(s) [1, 2]: F. nucleatum; also recorded: S. mutans; also recorded: S. oralis; also recorded: S. sanguinis |
| 1T-141 (KKFIILLFILVQGLIFSATKTLSDIIAL; Peptide with targeting and/or antimicrobial activity) [Peptide 1T-141] | – | – | Target(s) [1, 2]: F. nucleatum; also recorded: P. gingivalis; also recorded: S. epidermidis; also recorded: S. gordonii; also recorded: S. mitis; also recorded: S. mutans; also recorded: S. oralis; also recorded: S. sanguinis |
| 1T-56 (LALIGAGIWMIRKG; Peptide with targeting and/or antimicrobial activity) [Peptide 1T-56] | – | – | Target(s) [1, 2]: C. xerosis; also recorded: P. aeruginosa |
| 1T-76 (EMRLSKFFRDFILWRKK; Peptide with targeting and/or antimicrobial activity) [Peptide 1T-76] | – | – | Target(s) [1, 2]: S. pneumoniae |
| 1T-199 (RAGRIKKLSQKEAEPFEN; Peptide with targeting and/or antimicrobial activity) [Peptide 1T-199] | – | – | Target(s) [1, 2]: S. sanguinis |
| PF-217 (DWEFTHKTIPQKK; Peptide with targeting and/or antimicrobial activity) | – | – | Target(s) ([1]; microorganism(s) the targeting peptide binds, binding in aqueous buffers depending on peptide solubility): S. mutans |
| 1T-84 (FRKKRYGLSILLWLNAFTNLVNSIHAFYMTLF; Peptide with targeting and/or antimicrobial activity) [Peptide 1T-84] | – | – | Target(s) [1, 2]: S. pneumoniae |
